Data as given in patent publication US10934302B1, “SHP2 phosphatase inhibitors and methods of use thereof” (Relay Therapeutics, Inc., priority 2018, dated 2021).

The compounds below were run against SHP2 (Homo sapiens (Human), UniProt Q06124) (assay: SHP2 allosteric inhibition assay (DiFMUP prompt fluorescence)). Conditions: 0.25 nM SHP2 activated with 0.5 μM peptide IRS1_pY1172(dPEG8)pY1222; substrate DiFMUP.
Assay type: biochemical

Chain of SHP2 (Q06124 whole entry): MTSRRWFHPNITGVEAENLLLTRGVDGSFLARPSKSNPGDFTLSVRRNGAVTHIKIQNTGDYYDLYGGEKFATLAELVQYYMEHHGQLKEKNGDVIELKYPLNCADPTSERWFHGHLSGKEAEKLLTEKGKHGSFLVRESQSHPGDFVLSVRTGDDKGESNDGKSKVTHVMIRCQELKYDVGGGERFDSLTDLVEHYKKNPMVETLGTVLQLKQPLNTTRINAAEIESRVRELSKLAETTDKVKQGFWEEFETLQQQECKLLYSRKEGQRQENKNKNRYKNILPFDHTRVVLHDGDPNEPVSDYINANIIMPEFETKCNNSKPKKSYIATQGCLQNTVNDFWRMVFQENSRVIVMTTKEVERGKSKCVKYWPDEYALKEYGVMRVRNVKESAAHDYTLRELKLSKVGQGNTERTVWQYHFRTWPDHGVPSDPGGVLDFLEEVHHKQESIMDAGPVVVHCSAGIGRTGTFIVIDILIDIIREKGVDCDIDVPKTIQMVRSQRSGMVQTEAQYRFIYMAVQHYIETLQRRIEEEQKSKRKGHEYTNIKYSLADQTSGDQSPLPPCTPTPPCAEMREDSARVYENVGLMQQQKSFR

`N[C@@H]1c2cccc(F)c2OC12CCN(c1cnc(Sc3ccnc(Cl)c3Cl)cn1)CC2` [Example 82, (3R)-1′-{5-[(2,3-dichloropyridin-4-yl)sulfanyl]pyrazin-2-yl}-7-fluoro-3H-spiro[1-benzofuran-2,4′-piperidin]-3-amine] and `Nc1nccc(Sc2cnc(N3CCC4(CC3)Oc3ccccc3[C@H]4N)cn2)c1Cl` [Example 177] cannot be ordered by IC50: no more than 50 nM for the first, no more than 50 nM for the second.

Going from `COc1cccc(-n2nccc2C(=O)N2CCC3(CC2)Cc2ccccc2[C@H]3N)c1` [Example 288, (1S)-1′-[1-(3-methoxyphenyl)-1H-pyrazole-5-carbonyl]-1,3-dihydrospiro[indene-2,4′-piperidin]-1-amine] to `N[C@@H]1c2ccccc2CC12CCN(c1ncnc3c1cnn3-c1ccccc1)CC2` [Example 195, (3S)-1′-{1-phenyl-1Hpyrazolo[3,4-d]pyrimidin-4-yl}-1,3-dihydrospiro[indene-2,4′-piperidin]-3-amine], the IC50 falls from greater than 10000 nM to no more than 50 nM. The second is the more potent here.

`N[C@@H]1c2ccccc2CC12CCN(c1cnc3c(N4CCCc5nc(-c6ccn[nH]6)ccc54)n[nH]c3n1)CC2` [Example 4] and `Cn1cc(-c2ccc3c(n2)CCCN3c2n[nH]c3nc(N4CCC5(CC4)Cc4ccccc4[C@H]5N)c(CO)nc23)cn1` [Example 101] cannot be ordered by IC50: no more than 50 nM for the first, 50 to 1000 nM for the second.

`CCSc1cnc(N2CCC3(CC2)Cc2ccccc2[C@H]3N)cn1` [Example 170, (3S)-1′-[5-(ethylsulfanyl)pyrazin-2-yl]-1,3-dihydrospiro[indene-2,4′-piperidin]-3-amine] and `N[C@@H]1c2ccccc2CC12CCN(c1cnc(SC3CCCC3)cn1)CC2` [Example 168, (3S)-1′-[5-(cyclopentylsulfanyl)pyrazin-2-yl]-1,3-dihydrospiro[indene-2,4′-piperidin]-3-amine] cannot be ordered by IC50: 50 to 1000 nM for the first, no more than 50 nM for the second.

`Cc1cc(N2CCC3(CC2)Cc2ccccc2[C@H]3N)cnc1Sc1ccnc(N)c1Cl` [Example 219] and `Nc1nccc(Sc2cnc(N3CCC4(CC3)Cc3ccccc3[C@@H]4N)cn2)c1Cl` [Example 80, (R)-1′-(5-((2-amino-3-chloropyridin-4-yl)thio)pyrazin-2-yl)-1,3-dihydrospiro[indene-2,4′-piperidin]-1-amine] cannot be ordered by IC50: no more than 50 nM for the first, no more than 50 nM for the second.

`N[C@@H]1c2ccccc2CC12CCN(c1nc3[nH]nc(N4CCCCC4)c3nc1C1CC1)CC2` [Example 255, (3S)-1′-[5-cyclopropyl-3-(piperidin-1-yl)-1H-pyrazolo[3,4-b]pyrazin-6-yl]-1,3-dihydrospiro[indene-2,4′-piperidin]-3-amine] and `Cn1c(N2CCC3(CC2)Cc2ccccc2[C@H]3N)nc2[nH]nc(N3CCCCC3)c2c1=O` (racemic) [Example 200] cannot be ordered by IC50: no more than 50 nM for the first, no more than 50 nM for the second.

`N[C@H]1c2ccccc2CC12CCN(c1cnc3c(-c4cc5cc[nH]c5cc4F)n[nH]c3n1)CC2` [Example 73] and `CN(c1ccnc(N)c1)c1n[nH]c2nc(N3CCC4(CC3)Cc3ccccc3[C@H]4N)cnc12` [Example 148, (S)—N4-(6-(1-amino-1,3-dihydrospiro[indene-2,4′-piperidin]-1′-yl)-1H-pyrazolo[3,4-b]pyrazin-3-yl)-N4-methylpyridine-2,4-diamine] cannot be ordered by IC50: no more than 50 nM for the first, no more than 50 nM for the second.

`N[C@@H]1c2ccccc2CC12CCN(c1ncc(N3CCCCc4ccccc43)nc1CO)CC2` [Example 214, (S)-(3-(1-amino-1,3-dihydrospiro[indene-2,4′-piperidin]-1′-yl)-6-(2,3,4,5-tetrahydro-1H-benzo[b]azepin-1-yl)pyrazin-2-yl)methanol] and `N[C@@H]1c2ccccc2CC12CCN(c1ncc(N3CCCc4ccccc43)nc1CO)CC2` [Example 212, {3-[(3S)-3-amino-1,3-dihydrospiro[indene-2,4′-piperidin]-1′-yl]-6-(1,2,3,4-tetrahydroquinolin-1-yl)pyrazin-2-yl}methanol] cannot be ordered by IC50: no more than 50 nM for the first, no more than 50 nM for the second.

First: Nc1nccc(Sc2cnc(C34C[C@@H]5C[C@@]6(Cc7ccccc7[C@H]6N)C[C@H](C3)N54)cn2)c1Cl (stereo partly drawn) [Example 231]
Second: N[C@@H]1c2ccccc2CC12CCN(c1cnc(Sc3cccc(Cl)c3Cl)cn1)CC2 [Example 147, (S)-1′-(5-((2,3-dichlorophenyl)thio)pyrazin-2-yl)-1,3-dihydrospiro[indene-2,4′-piperidin]-1-amine]
The IC50 of the first is higher: greater than 10000 nM for the first, no more than 50 nM for the second. The second is the more potent here.

`N[C@@H]1c2ccccc2CC12CCN(c1cnc(Cc3ccnc(Cl)c3Cl)cn1)CC2` [Example 157, (3S)-1′-{5-[(2,3-dichloropyridin-4-YL)methyl]pyrazin-2-yl}-1,3-dihydrospiro[indene-2,4′-piperidin]-3-amine] and `N[C@@H]1c2ccccc2CC12CCN(c1cnc(Oc3ccnc(Cl)c3Cl)cn1)CC2` [Example 134, (3S)-1′-{5-[(2,3-dichloropyridin-4-yl)oxy]pyrazin-2-yl}-1,3-dihydrospiro[indene-2,4′-piperidin]-3-amine] cannot be ordered by IC50: no more than 50 nM for the first, no more than 50 nM for the second.

First: N#Cc1ccc2c(c1)N(C1(C#N)CC1)CCN2c1n[nH]c2nc(N3CCC4(CC3)Cc3ccccc3[C@H]4N)cnc12 [Example 39]
Second: N[C@H]1c2cccc(F)c2CC12CCN(c1cnc3c(N4CCCc5ncccc54)n[nH]c3n1)CC2 [Example 16]
The IC50 of the first is lower: no more than 50 nM for the first, 1000 to 10000 nM for the second.

`Cc1nccc(Oc2n[nH]c3nc(N4CCC5(CC4)Cc4ccccc4[C@H]5N)cnc23)c1Cl` [Example 127] and `COc1ccc2c(n1)[C@@H](N)C1(CCN(c3cnc4c(N5CCCc6ncccc65)n[nH]c4n3)CC1)C2` [Example 106] cannot be ordered by IC50: 50 to 1000 nM for the first, no more than 50 nM for the second.

`CS(=O)(=O)c1cccc2c1CCCN2c1n[nH]c2nc(N3CCC4(CC3)Cc3ccc(F)cc3[C@H]4N)cnc12` [Example 41] and `CS(=O)(=O)c1cccc2c1CCCN2c1n[nH]c2nc(N3CCC4(CC3)Cc3cccc(F)c3[C@H]4N)cnc12` [Example 59] cannot be ordered by IC50: no more than 50 nM for the first, no more than 50 nM for the second.

`N#CCc1n[nH]c2nc(N3CCC4(CC3)Cc3ccccc3[C@H]4N)c(CO)nc12` [Example 153, 2-{6-[(3S)-3-amino-1,3-dihydrospiro[indene-2,4′-piperidin]-1′-yl]-5-(hydroxymethyl)-1H-pyrazolo[3,4-b]pyrazin-3-yl}acetonitrile] and `NC1c2ccccc2CC12CCN(c1nc3[nH]nc(N4CCCc5ncccc54)c3nc1CO)CC2` (stereo not drawn) [Example 99] cannot be ordered by IC50: no more than 50 nM for the first, no more than 50 nM for the second.

`N[C@@H]1c2ccccc2CC12CCN(c1cnc(SCCc3ccccc3)cn1)CC2` [Example 265, (S)-1′-(5-(phenethylthio)pyrazin-2-yl)-1,3-dihydrospiro[indene-2,4′-piperidin]-1-amine] and `N[C@@H]1c2ccccc2CC12CCN(c1nc3[nH]nc(N4CCCc5ncccc54)c3nc1CO)CC2` [Example 100] cannot be ordered by IC50: no more than 50 nM for the first, 50 to 1000 nM for the second.

`Cn1cc(-c2ccc3c(n2)CCCN3c2n[nH]c3nc(N4CCC5(CC4)Oc4ccccc4[C@H]5N)cnc23)cn1` [Example 60] and `N[C@@H]1c2ccccc2OC12CCN(c1cnc3c(N4CCCc5ncccc54)n[nH]c3n1)CC2` [Example 119, (R)-1′-(3-(3,4-dihydro-1,5-naphthyridin-1(2H)-yl)-1H-pyrazolo[3,4-b]pyrazin-6-yl)-3H-spiro[benzofuran-2,4′-piperidin]-3-amine] cannot be ordered by IC50: no more than 50 nM for the first, no more than 50 nM for the second.

`CS(=O)(=O)c1cccc2c1CCCN2c1n[nH]c2nc(N3CCC4(CC3)Cc3ccccc3[C@H]4N)c(CO)nc12` [Example 98, {6-[(3S)-3-amino-1,3-dihydrospiro[indene-2,4′-piperidin]-1′-yl]-3-(5-methanesulfonyl-1,2,3,4-tetrahydroquinolin-1-yl)-1H-pyrazolo[3,4-b]pyrazin-5-yl}methanol] gave an IC50 of 50 to 1000 nM.
